Experimental data taken from US20190031667A1, “PESTICIDALLY ACTIVE HETEROCYCLIC DERIVATIVES WITH SULPHUR CONTAINING SUBSTITUENTS” (SYNGENTA PARTICIPATIONS AG, priority 2016, published 2019).

Key:
[1] = test system: Plutella xylostella (Diamond Back Moth); experiment: Example B3: Activity against Plutella xylostella, artificial diet; format: in vivo; settings: 120 h, application rate 200 ppm, L2 larvae, 5 days after infestation, read-out: effect in at least one of the two categories (mortality or growth inhibition)
Description: Example B3: Activity Against Plutella xylostella (Diamond Back Moth)
(§1) 24-well microtiter plates with artificial diet were treated with aqueous test solutions prepared from 10′000 ppm DMSO stock solutions by pipetting. After drying, the plates were infested with L2 larvae (10 to 15 per well). The samples were assessed for mortality and growth inhibition in comparison to untreated samples 5 days after infestation.

[2] = test system: Myzus persicae (Green Peach Aphid); experiment: Example B5: Activity against Myzus persicae, sprayed sunflower leaf discs; format: in vivo; settings: foliar, 144 h, application rate 200 ppm, mixed-age aphids, 6 days after infestation
Description: Example B5: Activity Against Myzus persicae (Green Peach Aphid)
Sunflower leaf discs were placed onto agar in a 24-well microtiter plate and sprayed with aqueous test solutions prepared from 10′000 ppm DMSO stock solutions. After drying, the leaf discs were infested with an aphid population of mixed ages. The samples were assessed for mortality 6 days after infestation.

[3] = test system: Euschistus heros (Neotropical Brown Stink Bug); experiment: Example B8: Activity against Euschistus heros, sprayed soybean leaves; format: in vivo; settings: 120 h, application rate 200 ppm, N2 nymphs, 5 days after infestation, read-out: effect in at least one of the two categories (mortality or growth inhibition)
Description: Example B8: Activity Against Euschistus heros (Neotropical Brown Stink Bug)
Soybean leaves on agar in 24-well microtiter plates were sprayed with aqueous test solutions prepared from 10′000 ppm DMSO stock solutions. After drying the leaves were infested with N2 nymphs. The samples were assessed for mortality and growth inhibition in comparison to untreated samples 5 days after infestation.

[4] = test system: Spodoptera littoralis (Egyptian cotton leaf worm); experiment: Example B1: Activity against Spodoptera littoralis, sprayed cotton leaf discs; format: in vivo; settings: foliar, 72 h, application rate 200 ppm, L1 larvae, 3 days after infestation
Description: Example B1: Activity against Spodoptera littoralis (Egyptian cotton leaf worm) Cotton leaf discs were placed onto agar in 24-well microtiter plates and sprayed with aqueous test solutions prepared from 10′000 ppm DMSO stock solutions. After drying the leaf discs were infested with five L1 larvae. The samples were assessed for mortality, anti-feeding effect, and growth inhibition in comparison to untreated samples 3 days after infestation. Control of Spodoptera littoralis by a test sample is given when at least one of the categories mortality, anti-feedant effect, and growth inhibition is higher than the untreated sample.

[5] = test system: Diabrotica Balteata (Corn Root Worm); experiment: Example B4: Activity against Diabrotica balteata, sprayed maize sprouts; format: in vivo; settings: 96 h, application rate 200 ppm, L2 larvae, 4 days after infestation, read-out: effect in at least one of the two categories (mortality or growth inhibition)
Description: Example B4: Activity Against Diabrotica Balteata (Corn Root Worm)
as §1, with “Maize sprouts, placed onto an agar layer in 24-well” for “24-well”, “plates” for “plates with artificial diet”, “spraying.” for “pipetting.”, “(6” for “(10”, “10” for “15”, “4” for “5”

[6] = test system: Spodoptera littoralis (Egyptian cotton leaf worm); experiment: Example B2: Activity against Spodoptera littoralis, systemic via lettuce roots in agar; format: in vivo; settings: 144 h, test rate 12.5 ppm, uptake by lettuce roots from agar, 6 days after infestation, read-out: effect in at least one of the three categories (mortality, anti-feeding, or growth inhibition)
From the text: Example B2: Activity against Spodoptera littoralis (Egyptian cotton leaf worm) Test compounds were applied by pipette from 10′000 ppm DMSO stock solutions into 24-well plates and mixed with agar. Lettuce seeds were placed onto the agar and the multi well plate was closed by another plate which contained also agar. After 7 days the compound was absorbed by the roots and the lettuce grew into the lid plate. The lettuce leaves were then cut off into the lid plate. Spodoptera eggs were pipetted through a plastic stencil onto a humid gel blotting paper and the lid plate was closed with it. The samples were assessed for mortality, anti-feedant effect and growth inhibition in comparison to untreated samples 6 days after infestation.

Compound CCS(=O)(=O)c1cc(Cl)c(OC)nc1-n1cc2cnc(C(F)(F)F)cc2n1 [Compound P24, 2-(5-chloro-3-ethylsulfonyl-6-methoxy-2-pyridyl)-6-(trifluoromethyl)pyrazolo[4,3-c]pyridine] has a percent effect (mortality or growth inhibition) at 200 ppm [1] of no less than 80%, a mortality at 200 ppm [2] of no less than 80% and a percent effect (mortality or growth inhibition) at 200 ppm [3] of no less than 80%. For the same compound, the percent control (mortality, anti-feedant effect or growth inhibition) at 200 ppm [4] was no less than 80% and the percent effect (mortality or growth inhibition) at 200 ppm [5] was no less than 80%.
CCS(=O)(=O)c1cc(Cl)c(NC)nc1-n1cc2cnc(C(F)(F)F)cc2n1 [Compound P18] showed a percent effect (mortality or growth inhibition) at 200 ppm [1] of no less than 80%, a mortality at 200 ppm [2] of no less than 80% and a percent effect (mortality or growth inhibition) at 200 ppm [3] of no less than 80%. It also gave a percent control (mortality, anti-feedant effect or growth inhibition) at 200 ppm [4] of no less than 80% and a percent effect (mortality or growth inhibition) at 200 ppm [5] of no less than 80%.
For CCS(=O)(=O)c1ccc(N(C)C)nc1-n1cc2cnc(C(F)(F)F)cc2n1 [Compound P30], the melting point was 256 to 258 °C.
Compound CCS(=O)(=O)c1ccc(-n2cncn2)nc1-n1nc2cc(C(F)(F)F)ncc2c1C [Compound P22, 2-[3-ethylsulfonyl-6-(1,2,4-triazol-1-yl)-2-pyridyl]-3-methyl-6-(trifluoromethyl)pyrazolo[4,3-c]pyridine] has a percent effect (mortality or growth inhibition) at 200 ppm [1] of no less than 80%, a mortality at 200 ppm [2] of no less than 80% and a percent control (mortality, anti-feedant effect or growth inhibition) at 200 ppm [4] of no less than 80%. For the same compound, the percent effect (mortality, anti-feeding or growth inhibition) at 12.5 ppm [6] was no less than 80% and the percent effect (mortality or growth inhibition) at 200 ppm [5] was no less than 80%.
CCS(=O)(=O)c1ccc(-n2cnc(SC)n2)nc1-n1nc2cc(C(F)(F)F)ncc2c1Cl [Compound P26] gave a melting point of 118 to 120 °C.
Work on CCS(=O)(=O)c1ccc(-n2cccn2)nc1-n1cc2cnc(C(F)(F)F)cc2n1 [Compound P8] yielded a percent effect (mortality or growth inhibition) at 200 ppm [1] of no less than 80%, a mortality at 200 ppm [2] of no less than 80% and a percent control (mortality, anti-feedant effect or growth inhibition) at 200 ppm [4] of no less than 80%. For the same compound, the percent effect (mortality or growth inhibition) at 200 ppm [5] was no less than 80%.
Work on CCS(=O)(=O)c1ccc(-n2cnc(Cl)n2)nc1-n1nc2cc(C(F)(F)F)ncc2c1Cl [Compound P4] yielded a percent control (mortality, anti-feedant effect or growth inhibition) at 200 ppm [4] of no less than 80%.
CCS(=O)(=O)c1ccc(NO)nc1-n1nc2cc(C(F)(F)F)ncc2c1Cl [Compound P32] showed a melting point of 246 to 248 °C.
With CCS(=O)(=O)c1ccc(N)nc1-n1nc2cc(C(F)(F)F)ncc2c1Cl [Compound P14, 6-[3-chloro-6-(trifluoromethyl)pyrazolo[4,3-c]pyridin-2-yl]-5-ethylsulfonyl-pyridin-2-amine] the mortality at 200 ppm [2] was no less than 80%.
With CCS(=O)(=O)c1ccc(-n2cncn2)nc1-n1cc2cnc(C(F)(F)F)cc2n1 [Compound P3, 2-[3-ethylsulfonyl-6-(1,2,4-triazol-1-yl)-2-pyridyl]-6-(trifluoromethyl)pyrazolo[4,3-c]pyridine] the percent effect (mortality or growth inhibition) at 200 ppm [1] was no less than 80%, the mortality at 200 ppm [2] was no less than 80% and the percent effect (mortality or growth inhibition) at 200 ppm [3] was no less than 80%. For the same compound, the percent control (mortality, anti-feedant effect or growth inhibition) at 200 ppm [4] was no less than 80%, the percent effect (mortality, anti-feeding or growth inhibition) at 12.5 ppm [6] was no less than 80% and the percent effect (mortality or growth inhibition) at 200 ppm [5] was no less than 80%.
With CCS(=O)(=O)c1ccc(-c2cccnc2)nc1-n1cc2cnc(C(F)(F)F)cc2n1 [Compound P12, 2-[3-ethylsulfonyl-6-(3-pyridyl)-2-pyridyl]-6-(trifluoromethyl)pyrazolo[4,3-c]pyridine] the percent effect (mortality or growth inhibition) at 200 ppm [1] was no less than 80%, the percent control (mortality, anti-feedant effect or growth inhibition) at 200 ppm [4] was no less than 80% and the percent effect (mortality or growth inhibition) at 200 ppm [5] was no less than 80%.
CCS(=O)(=O)c1ccc(-c2cccc(F)c2)nc1-n1nc2cc(C(F)(F)F)ncc2c1Cl [Compound P6] gave a percent effect (mortality or growth inhibition) at 200 ppm [1] of no less than 80% and a percent control (mortality, anti-feedant effect or growth inhibition) at 200 ppm [4] of no less than 80%.
For CCS(=O)(=O)c1ccc(-n2cncn2)nc1-n1nc2cc(C(F)(F)F)ncc2c1Cl [Compound P2, 3-chloro-2-[3-ethylsulfonyl-6-(1,2,4-triazol-1-yl)-2-pyridyl]-6-(trifluoromethyl)pyrazolo[4,3-c]pyridine], the percent effect (mortality or growth inhibition) at 200 ppm [3] was no less than 80%, the percent control (mortality, anti-feedant effect or growth inhibition) at 200 ppm [4] was no less than 80% and the percent effect (mortality or growth inhibition) at 200 ppm [5] was no less than 80%.
For CCS(=O)(=O)c1ccc(-n2ccc(C#N)n2)nc1-n1cc2cnc(C(F)(F)F)cc2n1 [Compound P20], the percent effect (mortality or growth inhibition) at 200 ppm [1] was no less than 80%, the percent effect (mortality or growth inhibition) at 200 ppm [3] was no less than 80% and the percent control (mortality, anti-feedant effect or growth inhibition) at 200 ppm [4] was no less than 80%. The percent effect (mortality or growth inhibition) at 200 ppm [5] was no less than 80%.
In the case of CCOc1nc(-n2cc3cnc(C(F)(F)F)cc3n2)c(S(=O)(=O)CC)cc1Cl [Compound P23], the percent effect (mortality or growth inhibition) at 200 ppm [1] is reported as no less than 80%, the mortality at 200 ppm [2] is reported as no less than 80% and the percent effect (mortality or growth inhibition) at 200 ppm [3] is reported as no less than 80%. It also gave a percent control (mortality, anti-feedant effect or growth inhibition) at 200 ppm [4] of no less than 80% and a percent effect (mortality or growth inhibition) at 200 ppm [5] of no less than 80%.
CCS(=O)(=O)c1ccc(-n2cc(C#N)cn2)nc1-n1cc2cnc(C(F)(F)F)cc2n1 [Compound P5] showed a percent effect (mortality or growth inhibition) at 200 ppm [1] of no less than 80%, a percent effect (mortality or growth inhibition) at 200 ppm [3] of no less than 80% and a percent control (mortality, anti-feedant effect or growth inhibition) at 200 ppm [4] of no less than 80%. It also gave a percent effect (mortality or growth inhibition) at 200 ppm [5] of no less than 80%.
CCS(=O)(=O)c1ccc(-c2cc(F)cc(F)c2)nc1-n1cc2cnc(C(F)(F)F)cc2n1 [Compound P1, 2-[6-(3,5-difluorophenyl)-3-ethylsulfonyl-2-pyridyl]-6-(trifluoromethyl)pyrazolo[4,3-c]pyridine] gave a melting point of 207 to 209 °C.
Work on CCS(=O)(=O)c1ccc(-n2cnc(SC)n2)nc1-n1cc2cnc(C(F)(F)F)cc2n1 [Compound P27] yielded a melting point of 172 to 174 °C.
Compound CCS(=O)(=O)c1ccc(N(C)C)nc1-n1nc2cc(C(F)(F)F)ncc2c1Cl [Compound P29] has a melting point of 166 to 168 °C.
In the case of CCS(=O)(=O)c1ccc(-c2cccc(F)c2)nc1-n1cc2cnc(C(F)(F)F)cc2n1 [Compound P7], the percent control (mortality, anti-feedant effect or growth inhibition) at 200 ppm [4] is reported as no less than 80%.
In the case of CCS(=O)(=O)c1ccc(-c2cncnc2)nc1-n1cc2cnc(C(F)(F)F)cc2n1 [Compound P9], the percent effect (mortality or growth inhibition) at 200 ppm [1] is reported as no less than 80%, the mortality at 200 ppm [2] is reported as no less than 80% and the percent effect (mortality or growth inhibition) at 200 ppm [3] is reported as no less than 80%. For the same compound, the percent control (mortality, anti-feedant effect or growth inhibition) at 200 ppm [4] was no less than 80% and the percent effect (mortality or growth inhibition) at 200 ppm [5] was no less than 80%.
Compound CCS(=O)(=O)c1ccc(NC)nc1-n1nc2cc(C(F)(F)F)ncc2c1Cl [Compound P13] has a melting point of 257 to 259 °C.
CCS(=O)(=O)c1cc(Cl)c(N)nc1-n1cc2cnc(C(F)(F)F)cc2n1 [Compound P19, 3-chloro-5-ethylsulfonyl-6-[6-(trifluoromethyl)pyrazolo[4,3-c]pyridin-2-yl]pyridin-2-amine] showed a percent effect (mortality or growth inhibition) at 200 ppm [1] of no less than 80%, a mortality at 200 ppm [2] of no less than 80% and a percent effect (mortality or growth inhibition) at 200 ppm [3] of no less than 80%. For the same compound, the percent control (mortality, anti-feedant effect or growth inhibition) at 200 ppm [4] was no less than 80%, the percent effect (mortality, anti-feeding or growth inhibition) at 12.5 ppm [6] was no less than 80% and the percent effect (mortality or growth inhibition) at 200 ppm [5] was no less than 80%.
With CCS(=O)(=O)c1ccc(-n2cnc(S(C)(=O)=O)n2)nc1-n1cc2cnc(C(F)(F)F)cc2n1 [Compound P28] the melting point was 247 to 249 °C.
With CCS(=O)(=O)c1ccc(-c2cccnc2)nc1-n1nc2cc(C(F)(F)F)ncc2c1Cl [Compound P17, 3-chloro-2-[3-ethylsulfonyl-6-(3-pyridyl)-2-pyridyl]-6-(trifluoromethyl)pyrazolo[4,3-c]pyridine] the melting point was 194 to 196 °C.
Work on CCS(=O)(=O)c1ccc(-n2cc(C#N)cn2)nc1-n1nc2cc(C(F)(F)F)ncc2c1Cl [Compound P10, 1-[6-[3-chloro-6-(trifluoromethyl)pyrazolo[4,3-c]pyridin-2-yl]-5-ethylsulfonyl-2-pyridyl]pyrazole-4-carbonitrile] yielded a percent effect (mortality or growth inhibition) at 200 ppm [1] of no less than 80% and a percent control (mortality, anti-feedant effect or growth inhibition) at 200 ppm [4] of no less than 80%.
CCS(=O)(=O)c1ccc(-n2ccc(C#N)n2)nc1-n1nc2cc(C(F)(F)F)ncc2c1Cl [Compound P21] gave a melting point of 264 to 266 °C.
